{"source": "patent US5532258A", "about": "“H2 -receptor antagonist thiazoles” (Fujisawa Pharmaceutical Co., Ltd., priority 1991, dated 1996)", "key": {"stress ulcer": {"test_system": "stress ulcer", "experiment": "Test B (Inhibition of stress ulcer)", "format": "in vivo, male Sprague-Dawley rats", "conditions": "rats; 32 mg/kg orally just before stress; restraint in water bath 22° C. for 7 hours; vs control group", "procedure": "Test B (Inhibition of stress ulcer):\nFive male Sprague-Dawley rats, aged 7 weeks, were fasted but allowed free access to water for 24 hours. Animals were placed in a restraint cage and immersed to a level of the xiphoid in a water bath kept 22° C. for 7 hours. Each of the test compounds (32 mg/kg) suspended in 0.1% methylcellulose solution was administered orally just before the stress subjection. Animals were sacrificed and stomachs were removed. After fixing with 2% formalin, stomachs were opened along the greater curvature and area of ulcers was measured. Percentage inhibition was calculated by comparing the mean area of ulcers (mm^2) in the test group with that in the control group."}, "Gastric secretion [1]": {"test_system": "Gastric secretion", "experiment": "Test C (Gastric secretion from lumen perfused stomach in anesthetized rats)", "format": "in vivo, Male Sprague-Dawley rats", "conditions": "1 mg/kg intravenously, histamine (3 mg/kg/hr) i.v. stimulation", "procedure": "Test C (Gastric secretion from lumen perfused stomach in anesthetized rats):\nMale Sprague-Dawley rats weighing about 250 g were used. Rats were deprived of food but allowed free access to water for 24 hours. The animals were anesthteized with 1.25 g/kg urethane intraperitoneally. The abdomen was opened and the gastric lumen was perfused with saline throughout the experiment. The perfusate was titrated continuously against 25 mM sodium hydroxide to maintain the perfusate solution at pH 7.0. Gastric secretion was stimulated by intravenous infusion with histamine (3 mg/kg/hr). After reaching plateau, test compound (1 mg/kg) was given intravenously at a volume of 2 ml/kg. Effect of drug was expressed as maximal inhibition of acid output calculated by the amount of sodium hydroxide required."}, "Gastric secretion [2]": {"test_system": "Gastric secretion", "experiment": "Test A (Gastric secretion in Heidenhain pouch dogs)", "format": "in vivo, Beagle dogs", "conditions": "3.2 mg/kg orally, tetragastrin (10 μg/kg/hr) i.v. stimulation, 3 hours", "procedure": "Test A (Gastric secretion in Heidenhain pouch dogs):\nBeagle dogs, weighing about 8-13 kg, were used for the study on gastric secretion. The animals were surgically provided with a vagally denervated Heidenhain pouch. One month or more later, the dogs were fasted overnight. Gastric secretion was stimulated by an intravenous infusion of tetragastrin (10 μg/kg/hr). Gastric juice was collected at 15 minutes intervals. After the secretion plateau had been established, test compound (3.2 mg/kg) suspended in 0.1% methyl cellulose solution was administered orally. Gastric juice was collected at 15 minutes intervals over 3 hours period. Acid concentration was determined by titrating an aliquot against 0.1N sodium hydroxide using automatic titrator (Hiranuma RAT-11 Type). Total acid output was calculated by multiplying the volume of gastric juice by acid concentration, and percentage inhibition was calculated by comparing total acid output before adminstration of test compound with that after administration of test compound."}}}
{"smiles": "CCNC(N)=Nc1nc(-c2cccc(CNC(C)=O)c2)cs1", "note": "[Test Compound (c), 4-(3-Acetylaminomethylphenyl)-2-[[(amino)(ethylamino)methylene]amino]thiazole]", "values": [{"measurement": "Inhibition (%) of area of ulcers", "setting": "stress ulcer", "result": 88.1, "unit": "%"}]}
{"smiles": "NC(=O)NCc1cccc(-c2csc(N=C(N)N)n2)c1", "note": "[Test Compound (a), 4-(3-Ureidomethylphenyl)-2-(diaminomethyleneamino)thiazole]", "values": [{"measurement": "Inhibition (%), maximal inhibition of acid output", "setting": "Gastric secretion [1]", "result": 99, "unit": "%"}]}
{"smiles": "CNC(N)=Nc1nc(-c2cccc(CNC(C)=O)c2)cs1", "note": "[Test Compound (b), 4-(3-Acetylaminomethylphenyl)-2-[[(amino)(methylamino)methylene]amino]thiazole]", "values": [{"measurement": "Inhibition (%) of total acid output", "setting": "Gastric secretion [2]", "result": 88.1, "unit": "%"}]}
